Measurements as given in patent publication US20040110802A1, “Antibacterial benzoic acid derivatives” (priority 2002, published 2004).
Values after ≈ are worked out from the molar mass of the structure shown. Read-outs that look alike come from different tables or passages of the source.

System: SAUR 9218
Test: MIC Test Method, standard agar dilution
Format: cell-based
Settings: for MIC: read-out: SAUR 9218 MIC
How it was run: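 Agar dilution in Mueller Hinton agar with serial 2-fold compound dilutions. Staphylococcus aureus strain 9218 spotted at approximately 10^4 to 10^5 cells per spot, incubated overnight at 35 °C; MIC (μg/ml) is the lowest concentration preventing visible growth.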

[1] = agar dilution, Mueller Hinton agar, incubated overnight at 35° C., lowest concentration that inhibits visible growth

Compound	MIC [1] [µg/mL]	further results
CCC(C)Sc1cnc(C(=O)Nc2ccc(Cl)cc2C(=O)O)cn1 (stereo not drawn)	0.25 (≈ 0.683 µM)	–
Cn1cccc1-c1cnc(C(=O)Nc2ccc(C#N)cc2C(=O)O)o1	2 (≈ 5.95 µM)	–
O=C(Nc1ccc(Br)cc1C(=O)O)c1cnc(CC(O)[C@H]2COC3(CCCCC3)O2)cn1 (stereo partly drawn)	128 (≈ 253 µM)	–
Cn1c(C(=O)Nc2ccc(Br)cc2C(=O)O)cc2cccc(S(=O)(=O)c3ccccc3)c21	0.125 (≈ 0.243 µM)	–
N#Cc1ccc(NC(=O)c2cc3cccc(NC(=O)c4cc5ccccc5[nH]4)c3[nH]2)c(C(=O)O)c1	0.25 (≈ 0.539 µM)	–
Cc1sc(C(=O)Nc2ccc(C#N)cc2C(=O)O)cc1S(=O)(=O)N1CCC(O)(c2ccc(Br)cc2)CC1	32 (≈ 52.9 µM)	–
CCCCN(CCCC)CCCNS(=O)(=O)c1cc(C(=O)Nc2ccc(Br)cc2C(=O)O)cs1	> 128	–
O=C(Nc1ccc(Br)cc1C(=O)O)c1cccs1	> 128	–
O=C(O)c1cc(Br)ccc1NC(=O)c1ncc(C(F)(F)F)cc1Cl	64 (≈ 151 µM)	–
N#Cc1ccc(NC(=O)c2cc(CCC(O)CO)on2)c(C(=O)O)c1 (stereo not drawn)	8 (≈ 23.2 µM)	–
N#Cc1ccc(NC(=O)c2cc(CNCc3ccccc3)on2)c(C(=O)O)c1	2 (≈ 5.31 µM)	–
O=C(O)c1cc(Br)ccc1NC(=O)c1cc(Cl)cc[n+]1[O-]	> 128	–
N#Cc1ccc(NC(=O)c2cc3cccc(NC(=O)Cc4cccc(F)c4)c3[nH]2)c(C(=O)O)c1	0.25 (≈ 0.548 µM)	–
N#Cc1ccc(NC(=O)c2cc3cccc(NC(=O)c4ccc(F)cc4F)c3[nH]2)c(C(=O)O)c1	1 (≈ 2.17 µM)	–
Cn1c(C(=O)Nc2ccc(C#N)cc2C(=O)O)cc2cccc(NC(=O)N3CCOCC3)c21	8 (≈ 17.9 µM)	–
Cc1sc(C(=O)Nc2ccc(Br)cc2C(=O)O)cc1S(=O)(=O)N1CC2CC1CN2Cc1ccccc1 (stereo not drawn)	16 (≈ 27.1 µM)	–
N#Cc1ccc(NC(=O)c2cnc(SCc3ccccc3)s2)c(C(=O)O)c1	1 (≈ 2.53 µM)	–
CCCCCCCSc1ccc(C(=O)Nc2ccc(C#N)cc2C(=O)O)nn1	0.015 (≈ 0.0376 µM)	–
O=C(Nc1ccc(Cl)cc1C(=O)O)c1ncc(-c2ccccc2)o1	1 (≈ 2.92 µM)	–
N#Cc1ccc(NC(=O)c2noc3cc(Br)ccc23)c(C(=O)O)c1	0.5 (≈ 1.29 µM)	–
N#Cc1ccc(NC(=O)c2cncc(C#CCO)c2)c(C(=O)O)c1	64 (≈ 199 µM)	–
COc1cccc(-c2cc(C(=O)Nc3ccc(O)cc3C(=O)O)no2)c1	0.25 (≈ 0.706 µM)	–

Compound	MIC [1] [µg/mL]	further results
CCOC(=O)CC(=O)Nc1cccc2cc(C(=O)Nc3ccc(C#N)cc3C(=O)O)[nH]c12	0.5 (≈ 1.15 µM)	–
CCCCCCSc1cnc(C(=O)Nc2ccc(Cl)cc2C(=O)O)cn1	0.5 (≈ 1.27 µM)	–
Cl.Cn1c(C(=O)Nc2ccc(C#N)cc2C(=O)O)cc2cccc(OCC(O)Cn3ccnc3)c21 (stereo not drawn)	0.5	–
CCCC(C)Sc1ccc(C(=O)Nc2ccc(C#N)cc2C(=O)O)cn1 (stereo not drawn)	0.125 (≈ 0.338 µM)	–
O=C(Nc1ccc(Cl)cc1C(=O)O)c1cc(-c2ccccc2)on1 [drawing 1111]	–	SAUR 9218 MIC [1]: 0.5 µg/mL
N#Cc1ccc(NC(=O)c2nc3ccccc3s2)c(C(=O)O)c1	0.25 (≈ 0.773 µM)	–
Cn1c(C(=O)Nc2ccc(C#N)cc2C(=O)O)cc2c(Br)cc(Br)c(NC(=O)Cc3ccccc3)c21	2 (≈ 3.28 µM)	–
CCN(CC)c1ccc(NS(=O)(=O)c2cc(C(=O)Nc3ccc(Br)cc3C(=O)O)cs2)cc1	> 128	–
CCC(C)C(=O)Nc1cccc2cc(C(=O)Nc3ccc(C#N)cc3C(=O)O)[nH]c12 (stereo not drawn)	1 (≈ 2.47 µM)	–
N#Cc1ccc(NC(=O)c2cc(CCl)on2)c(C(=O)O)c1	4 (≈ 13.1 µM)	–
Cn1cccc1-c1cnc(C(=O)Nc2ccc(Br)cc2C(=O)O)o1	2 (≈ 5.13 µM)	–
CN(C)S(=O)(=O)c1ccc2onc(C(=O)Nc3ccc(C#N)cc3C(=O)O)c2c1	0.125 (≈ 0.302 µM)	–
Cn1c(C(=O)Nc2ccc(C#N)cc2C(=O)O)cc2ccc(NC(=O)N3CCOCC3)cc21	4 (≈ 8.94 µM)	–
N#Cc1ccc(NC(=O)c2noc3c2CCCC3)c(C(=O)O)c1	0.5 (≈ 1.61 µM)	–
Cc1noc(C)c1CSc1ccc(C(=O)Nc2ccc(C#N)cc2C(=O)O)cn1	0.5 (≈ 1.22 µM)	–
N#Cc1ccc(NC(=O)c2cc(-c3ccccc3OCC3CCC3)on2)c(C(=O)O)c1	0.125 (≈ 0.299 µM)	–
CCC(C)Sc1cnc(C(=O)Nc2ccc(C#N)cc2C(=O)O)cn1 (stereo not drawn)	0.25 (≈ 0.701 µM)	–
N#Cc1ccc(NC(=O)c2cc3ccccc3cn2)c(C(=O)O)c1	1 (≈ 3.15 µM)	–
N#Cc1ccc(NC(=O)c2cc3cccc(NC(=O)CF)c3[nH]2)c(C(=O)O)c1	–	MIC: 2 µg/mL (≈ 5.26 µM)
C=CCOc1ccccc1-c1cc(C(=O)Nc2ccc(C#N)cc2C(=O)O)no1	0.125 (≈ 0.321 µM)	–
CCC(C(=O)Nc1cccc2cc(C(=O)Nc3ccc(C#N)cc3C(=O)O)[nH]c12)c1ccccc1 (stereo not drawn)	0.5 (≈ 1.07 µM)	–
COc1cnc(C(=O)Nc2ccc(C#N)cc2C(=O)O)cn1	8 (≈ 26.8 µM)	–

Compound	MIC [1] [µg/mL]	further results
COc1ccc(CC(=O)Nc2cccc3cc(C(=O)Nc4ccc(C#N)cc4C(=O)O)[nH]c23)cc1	0.25 (≈ 0.534 µM)	–
Cn1c(C(=O)Nc2ccc(I)cc2C(=O)O)cc2ccccc21	4 (≈ 9.52 µM)	–
O=C(O)c1cc(Br)ccc1NC(=O)c1cc(OCc2ccccc2)cc[n+]1[O-]	32 (≈ 72.2 µM)	–
N#Cc1ccc(NC(=O)c2ncc(-c3ccccc3)s2)c(C(=O)O)c1	1 (≈ 2.86 µM)	–
COCCNc1ccc2onc(C(=O)Nc3ccc(C#N)cc3C(=O)O)c2c1	1 (≈ 2.63 µM)	–
O=C(Nc1ccc(Cl)cc1C(=O)O)c1cc2cccc(S(=O)(=O)c3ccccc3)c2[nH]1	0.125 (≈ 0.275 µM)	–
Cc1c(S(=O)(=O)NC2Cc3ccccc3C2)csc1C(=O)Nc1ccc(Br)cc1C(=O)O	16 (≈ 29.9 µM)	–
CCCCCSc1ccc(C(=O)Nc2ccc(C#N)cc2C(=O)O)nn1	0.015 (≈ 0.0405 µM)	–
N#Cc1ccc(NC(=O)c2nnc(SCc3ccccc3)s2)c(C(=O)O)c1	0.125 (≈ 0.315 µM)	–
N#Cc1ccc(NC(=O)c2ncc(-c3ccco3)o2)c(C(=O)O)c1	2 (≈ 6.19 µM)	–
COCCOCCCSc1cnc(C(=O)Nc2ccc(C#N)cc2C(=O)O)cn1	1 (≈ 2.4 µM)	–
N#Cc1ccc(NC(=O)c2cc3cccc(N4C(=O)c5ccccc5C4=O)c3[nH]2)c(C(=O)O)c1	8 (≈ 17.8 µM)	–
N#Cc1ccc(NC(=O)c2cnc(-c3ccccc3C(F)(F)F)cn2)c(C(=O)O)c1	32 (≈ 77.6 µM)	–
N#Cc1ccc(NC(=O)c2cc3cccc4c3n2CCC4O)c(C(=O)O)c1 (stereo not drawn)	0.5 (≈ 1.38 µM)	–
N#Cc1ccc(NC(=O)c2noc3ccc(NC(=O)Cc4ccccc4)cc23)c(C(=O)O)c1	1 (≈ 2.27 µM)	–
Cc1sc(C(=O)Nc2ccc(C#N)cc2C(=O)O)cc1S(=O)(=O)N(Cc1ccccc1)C(C)C	32 (≈ 64.3 µM)	–
Cc1sc(C(=O)Nc2ccc(Br)cc2C(=O)O)cc1S(=O)(=O)NCCc1ccc(N)cc1	32 (≈ 59.4 µM)	–
CC(=O)Nc1ccc2cc(C(=O)Nc3ccc(C#N)cc3C(=O)O)n(C)c2c1	1 (≈ 2.66 µM)	–
Cl.Cn1c(C(=O)Nc2ccc(C#N)cc2C(=O)O)cc2cccc(OCC(O)CNCc3cccs3)c21 (stereo not drawn)	0.5	–
CCCCCCSc1cnc(C(=O)Nc2ccc(C#N)cc2C(=O)O)cn1	0.125 (≈ 0.325 µM)	–
CC(C)[Si](c1cc(C(=O)Nc2ccc(C#N)cc2C(=O)O)no1)(C(C)C)C(C)C	0.5 (≈ 1.21 µM)	–
COc1ccc(CNc2cnc(C(=O)Nc3ccc(N)cc3C(=O)O)cn2)cc1	0.25 (≈ 0.635 µM)	–

Compound	MIC [1] [µg/mL]	further results
CCCCCSc1cnc(C(=O)Nc2ccc(C#N)cc2C(=O)O)cn1	0.125 (≈ 0.337 µM)	–
CC(C)Oc1ccccc1-c1cc(C(=O)Nc2ccc(C#N)cc2C(=O)O)no1	0.125 (≈ 0.319 µM)	–
CC(C)CSc1cnc(C(=O)Nc2ccc(C#N)cc2C(=O)O)cn1	0.25 (≈ 0.701 µM)	–
CC(=O)Nc1ccc(-c2cc3onc(C(=O)Nc4ccc(C#N)cc4C(=O)O)c3cc2NC(C)=O)c(C(F)(F)F)c1	0.03 (≈ 0.0531 µM)	–
N#Cc1ccc(NC(=O)c2cc3cccc(NC(=O)c4cccs4)c3[nH]2)c(C(=O)O)c1	0.25 (≈ 0.581 µM)	–
N#Cc1ccc(NC(=O)c2noc3ccc(S(=O)(=O)N4CCOCC4)cc23)c(C(=O)O)c1	0.5 (≈ 1.1 µM)	–
Cn1c(C(=O)Nc2ccc(C#N)cc2C(=O)O)cc2cccc(OCC3CCCCC3)c21	0.25 (≈ 0.579 µM)	–
COCCOc1cccc2cc(C(=O)Nc3ccc(C#N)cc3C(=O)O)n(C)c12	0.25 (≈ 0.635 µM)	–
CCCCOc1ccc2cc(C(=O)Nc3ccc(C#N)cc3C(=O)O)n(C)c2c1	16 (≈ 40.9 µM)	–
CCCC(=O)Nc1cccc2cc(C(=O)Nc3ccc(C#N)cc3C(=O)O)[nH]c12	2 (≈ 5.12 µM)	–
N#Cc1ccc(NC(=O)c2cc3ccc(Cl)cc3[nH]2)c(C(=O)O)c1	2 (≈ 5.89 µM)	–
CCCOc1ccccc1C(=O)Nc1cccc2cc(C(=O)Nc3ccc(C#N)cc3C(=O)O)[nH]c12	1 (≈ 2.07 µM)	–
O=C(O)c1cc(Br)ccc1NC(=O)c1cc2ccccc2n1Cc1ccccc1	4 (≈ 8.9 µM)	–
N#Cc1ccc(NC(=O)c2cncc(C#CC3C=NNC3)c2)c(C(=O)O)c1 (stereo not drawn)	4 (≈ 11.1 µM)	–
Cc1sc(C(=O)Nc2ccc(C#N)cc2C(=O)O)cc1S(=O)(=O)N1CCCCCCC1	8 (≈ 17.3 µM)	–
N#Cc1ccc(NC(=O)c2cnc(-c3ccccc3F)cn2)c(C(=O)O)c1	4 (≈ 11 µM)	–
CC(C)Oc1cccc2cc(C(=O)Nc3ccc(C#N)cc3C(=O)O)n(C)c12	0.125 (≈ 0.331 µM)	–
CCC(=O)COc1ccccc1-c1cc(C(=O)Nc2ccc(O)cc2C(=O)O)no1	1 (≈ 2.44 µM)	–
Cn1c(C(=O)Nc2ccc(C#N)cc2C(=O)O)cc2cccc(OCc3ccco3)c21	0.125 (≈ 0.301 µM)	–
COC(=O)CCCC(=O)Nc1cccc2cc(C(=O)Nc3ccc(C#N)cc3C(=O)O)[nH]c12	0.5 (≈ 1.11 µM)	–
N#Cc1ccc(NC(=O)c2noc3ccc(S(=O)(=O)Nc4ccccc4)cc23)c(C(=O)O)c1	0.015 (≈ 0.0324 µM)	–
